Patent publication US20250353858A1, “CONDENSED HETEROCYCLIC COMPOUNDS AS INHIBITOR OF DIACYLGLYCEROL KINASES” (BEONE MEDICINES I GMBH, priority 2023, published 2025)

What was measured:
DGKα = DGKα (Homo sapiens (Human), UniProt P23743); experiment: Biochemical DGK IC50 assay (ADP-Glo, lipid micelle substrate), DGKα; details: full length DGKα […], ATP 140 μM, DAG 80 μM; note: full length DGKα 7.5 nM
Procedure: (§1) Enzymatic reactions of DGKζ, DGKα and DGKδ were performed using ADP-Glo assay with lipid micelle substrate. […] Full length DGKα (D21-10BG, SignalChem) and full length DGKδ (D23-10G, SignalChem) were purchased. Lipid micelle was prepared by dissolving DAG (Sigma, 317505-10MG) and PS (Sigma, P7769-100MG) with chloroform which was furtherly removed by rotary evaporation. The resulted product was resuspended in buffer containing 25 mM HEPES pH 7.0, 0.5 mM EDTA and 160 mM Octyl β-D glucopyranoside by vigorous mixing and ultrasonic (IID, Scientz).
(§2) The inhibition activities testing for the compound disclosed herein were carried out at room temperature in assay buffer containing 50 mM HEPES, 10 mM MgCl2, 0.01% BSA, 0.1 mM Na3VO4, 0.005% Tween-20 and 0.01 mM CaCl2. Compounds in DMSO were dispensed into wells of a black 384 well plate (Corning 4514) using D300e digital dispenser (Tecan). […] 3 μL 2× enzyme solution was added to wells. […] After 1 hour reaction, 5 μL ADP-Glo reagent (Promga V9101) was added and incubated for 40 minutes. 10 μL Kinase Detection reagent was added and incubated for 30 minutes. Luminescence was measured on a microplate reader (PHERAstar FSX, BMG labtech). The IC50s are calculated based on inhibition of enzyme activity in the presence of increasing concentrations of compounds.

DGKζ = DGKζ (Homo sapiens (Human), UniProt Q13574); experiment: Biochemical DGK IC50 assay (ADP-Glo, lipid micelle substrate), DGKζ; details: full length DGKζ 0.5 nM, ATP 140 μM, DAG 80 μM
Sequence of DGKζ (Q13574 other isoform, or with tags, fused parts or gaps): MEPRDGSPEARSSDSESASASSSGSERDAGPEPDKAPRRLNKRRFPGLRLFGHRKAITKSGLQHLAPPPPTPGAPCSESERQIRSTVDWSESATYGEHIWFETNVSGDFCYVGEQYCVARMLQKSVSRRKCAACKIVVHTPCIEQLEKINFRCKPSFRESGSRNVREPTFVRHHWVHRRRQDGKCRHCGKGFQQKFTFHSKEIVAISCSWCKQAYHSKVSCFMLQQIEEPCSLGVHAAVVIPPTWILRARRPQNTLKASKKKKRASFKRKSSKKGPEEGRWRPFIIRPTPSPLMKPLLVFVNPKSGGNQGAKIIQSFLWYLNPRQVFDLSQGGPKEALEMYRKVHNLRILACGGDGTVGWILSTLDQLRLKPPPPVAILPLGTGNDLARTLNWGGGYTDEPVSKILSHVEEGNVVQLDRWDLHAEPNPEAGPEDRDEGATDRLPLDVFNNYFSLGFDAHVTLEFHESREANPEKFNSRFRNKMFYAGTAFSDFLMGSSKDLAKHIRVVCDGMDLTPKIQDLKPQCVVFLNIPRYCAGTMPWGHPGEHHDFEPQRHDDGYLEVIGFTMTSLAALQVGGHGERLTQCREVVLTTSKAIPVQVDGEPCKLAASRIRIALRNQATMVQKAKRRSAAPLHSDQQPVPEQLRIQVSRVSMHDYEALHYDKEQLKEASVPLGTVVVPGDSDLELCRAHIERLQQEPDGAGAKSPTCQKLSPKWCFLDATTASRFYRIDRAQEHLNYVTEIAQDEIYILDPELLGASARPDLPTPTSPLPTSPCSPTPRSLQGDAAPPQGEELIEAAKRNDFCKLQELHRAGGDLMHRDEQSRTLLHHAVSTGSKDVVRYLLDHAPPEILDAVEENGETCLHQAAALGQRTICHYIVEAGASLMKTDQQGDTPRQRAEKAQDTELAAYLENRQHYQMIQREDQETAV
Procedure: as §1, §2
Human His-TEV-DGK-zeta-pFastBac1 and human baculovirus samples was generated using the Bac-to-Bac baculovirus expression system (Invitrogen) according to the manufacturer's protocol. The DNA used for expression of DGK-zeta, have SEQ ID Nos: 1. Baculovirus amplification was achieved using infected SF9 cells at 1:2000 virus/cells ratios, and grown for 96 hours at 27° C. post-transfected.
Full length human DGKζ produced as described above, was purified from Sf9 baculovirus-infected insect cell paste. The cells were lysed using sonication method, and the lysates were clarified by centrifugation.

Sequence of DGKα (P23743 whole entry): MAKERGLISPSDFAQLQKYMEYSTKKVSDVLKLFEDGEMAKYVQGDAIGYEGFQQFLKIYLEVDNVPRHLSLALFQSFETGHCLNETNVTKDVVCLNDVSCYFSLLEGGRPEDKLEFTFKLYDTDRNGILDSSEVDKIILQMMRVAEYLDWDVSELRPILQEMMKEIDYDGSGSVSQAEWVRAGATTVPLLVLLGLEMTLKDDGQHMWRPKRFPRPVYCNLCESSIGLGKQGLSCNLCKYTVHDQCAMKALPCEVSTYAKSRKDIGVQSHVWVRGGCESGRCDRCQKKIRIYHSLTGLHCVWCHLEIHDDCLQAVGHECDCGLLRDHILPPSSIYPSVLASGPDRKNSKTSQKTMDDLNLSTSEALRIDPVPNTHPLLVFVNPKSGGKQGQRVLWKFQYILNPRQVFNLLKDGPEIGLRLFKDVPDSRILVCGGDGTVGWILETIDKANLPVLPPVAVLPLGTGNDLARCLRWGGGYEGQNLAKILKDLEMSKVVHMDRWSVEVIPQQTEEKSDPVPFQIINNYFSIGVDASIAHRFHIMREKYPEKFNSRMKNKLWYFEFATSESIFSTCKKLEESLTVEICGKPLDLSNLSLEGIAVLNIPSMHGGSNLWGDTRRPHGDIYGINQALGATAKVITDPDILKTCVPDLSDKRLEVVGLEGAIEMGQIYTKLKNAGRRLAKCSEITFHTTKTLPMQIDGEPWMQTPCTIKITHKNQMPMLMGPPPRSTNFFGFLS

| IC50 (DGKα) | IC50 (DGKζ) | Structure (SMILES) |
| --- | --- | --- |
| 116000 nM | 100 nM | Cc1cnc2ccc(C(C)N3C[C@H](C)N(c4cc(=O)[nH]c5cc(CC#N)nn45)C[C@H]3C)cc2n1 (stereo partly drawn) [Compound A5, 2-(7-((2S,5R)-2,5-dimethyl-4-(1-(3-methylquinoxalin-6-yl)ethyl)piperazin-1-yl)-5-oxo-4,5-dihydropyrazolo[1,5-a]pyrimidin-2-yl)acetonitrile] |
| 4640 nM | 58 nM | CC(c1ccc2ncc(C(F)F)nc2c1)N1C[C@H](C)N(c2cc(=O)n(C)c3cc(CC#N)nn23)C[C@H]1C (stereo partly drawn) [Compound A6, 2-(7-((2S,5R)-4-(1-(3-(difluoromethyl)quinoxalin-6-yl)ethyl)-2,5-dimethylpiperazin-1-yl)-4-methyl-5-oxo-4,5-dihydropyrazolo[1,5-a]pyrimidin-2-yl)acetonitrile] |
| 16900 nM | 23 nM | COc1cnc2ccc(C(C)N3C[C@H](C)N(c4cc(=O)n(C)c5cc(CC#N)nn45)C[C@H]3C)cc2n1 (stereo partly drawn) [Compound A7, 2-(7-((2S,5R)-4-(1-(3-methoxyquinoxalin-6-yl)ethyl)-2,5-dimethylpiperazin-1-yl)-4-methyl-5-oxo-4,5-dihydropyrazolo[1,5-a]pyrimidin-2-yl)acetonitrile] |
| 13300 nM | 42 nM | CC(c1ccc2ncc(Cl)nc2c1)N1C[C@H](C)N(c2cc(=O)n(C)c3cc(CC#N)nn23)C[C@H]1C (stereo partly drawn) [Compound A8, 2-(7-((2S,5R)-4-(1-(3-chloroquinoxalin-6-yl)ethyl)-2,5-dimethylpiperazin-1-yl)-4-methyl-5-oxo-4,5-dihydropyrazolo[1,5-a]pyrimidin-2-yl)acetonitrile] |
| 6520 nM | 29 nM | CC(c1ccc2c(c1)OC(C)(C)CO2)N1C[C@H](C)N(c2c(C#N)c(=O)n(C)c3cc(CC#N)nn23)C[C@H]1C (stereo partly drawn) [Compound A12, 2-(cyanomethyl)-7-((2S,5R)-4-(1-(3,3-dimethyl-2,3-dihydrobenzo[b][1,4]dioxin-6-yl)ethyl)-2,5-dimethylpiperazin-1-yl)-4-methyl-5-oxo-4,5-dihydropyrazolo[1,5-a]pyrimidine-6-carbonitrile] |
| 10200 nM | 53 nM | CC(c1ccc2c(c1)OCCO2)N1C[C@H](C)N(c2cc(=O)n(C)c3cc(CC#N)nn23)C[C@H]1C (stereo partly drawn) [Compound A13, 2-(7-((2S,5R)-4-(1-(2,3-dihydrobenzo[b][1,4]dioxin-6-yl)ethyl)-2,5-dimethylpiperazin-1-yl)-4-methyl-5-oxo-4,5-dihydropyrazolo[1,5-a]pyrimidin-2-yl)acetonitrile] |
| 27800 nM | 100 nM | CC[C@H]1CN(C(C)c2ccc(F)cc2OC)[C@H](CC)CN1c1cc(=O)n(C)c2cc(CC#N)nn12 (stereo partly drawn) [Compound A16, 2-(7-((2S,5R)-2,5-diethyl-4-(1-(4-fluoro-2-methoxyphenyl)ethyl)piperazin-1-yl)-4-methyl-5-oxo-4,5-dihydropyrazolo[1,5-a]pyrimidin-2-yl)acetonitrile] |
| 56700 nM | 136 nM | CC[C@H]1CN(C(C)c2ccc(F)cc2OC(F)F)[C@H](CC)CN1c1cc(=O)n(C)c2cc(CC#N)nn12 (stereo partly drawn) [Compound A17, 2-(7-((2S,5R)-4-(1-(2-(difluoromethoxy)-4-fluorophenyl)ethyl)-2,5-diethylpiperazin-1-yl)-4-methyl-5-oxo-4,5-dihydropyrazolo[1,5-a]pyrimidin-2-yl)acetonitrile] |
| 15700 nM | 28 nM | CC[C@H]1CN(C(C)c2ccc(F)cc2C(F)F)[C@H](CC)CN1c1cc(=O)n(C)c2cc(CC#N)nn12 (stereo partly drawn) [Compound A18, 2-(7-((2S,5R)-4-(1-(2-(difluoromethyl)-4-fluorophenyl)ethyl)-2,5-diethylpiperazin-1-yl)-4-methyl-5-oxo-4,5-dihydropyrazolo[1,5-a]pyrimidin-2-yl)acetonitrile] |
| 161 nM | 7900 nM | CC[C@H]1CN(C(C)c2ccncc2)[C@H](CC)CN1c1cc(=O)n(C)n2cc(CC#N)nc12 (stereo partly drawn) [Compound A19, 2-(8-((2S,5R)-2,5-diethyl-4-(1-(pyridin-4-yl)ethyl)piperazin-1-yl)-5-methy-6-oxo-5,6-dihydroimidazo[1,2-b]pyridazin-2-yl)acetonitrile] |
| 2940 nM | 717 nM | CC[C@H]1CN(C(C)c2ccc(C3CC3)cc2F)[C@H](CC)CN1c1cc(=O)n(C)c2cc(CC#N)nn12 (stereo partly drawn) [Compound A21, 2-(7-((2S,5R)-4-(1-(4-cyclopropyl-2-fluorophenyl)ethyl)-2,5-diethylpiperazin-1-yl)-4-methyl-5-oxo-4,5-dihydropyrazolo[1,5-a]pyrimidin-2-yl)acetonitrile] |
| 913 nM | 105 nM | CC[C@H]1CN(C(C)c2ccc(C3CC3)nc2)[C@H](CC)CN1c1cc(=O)n(C)c2cc(CC#N)nn12 (stereo partly drawn) [Compound A23, 2-(7-((2S,5R)-4(1-(6-cyclopropylpyridin-3-yl)ethyl)-2,5-diethylpiperazin-1-yl)-4-methyl-5-oxo-4,5-dihydropyrazolo[1,5-a]pyrimidin-2-yl)acetonitrile] |
| 148 nM | 175 nM | CC[C@H]1CN(C(C)c2ccc(OC(C)C)cn2)[C@H](CC)CN1c1cc(=O)n(C)c2cc(CC#N)nn12 (stereo partly drawn) [Compound A25, 2-(7-((2S,5R)-2,5-diethyl-4-(1-(5-isopropoxypyridin-2-yl)ethyl)piperazin-1-yl)-4-methyl-5-oxo-4,5-dihydropyrazolo[1,5-a]pyrimidin-2-yl)acetonitrile] |
| 1200 nM | 61 nM | CC[C@H]1CN(C(C)c2ccc(C3CC3)nc2F)[C@H](CC)CN1c1cc(=O)n(C)c2cc(CC#N)nn12 (stereo partly drawn) [Compound A26, 2-(7-((2S,5R)-4-(1-(6-cyclopropyl-2-fluoropyridin-3-yl)ethyl)-2,5-diethylpiperazin-1-yl)-4-methyl-5-oxo-4,5-dihydropyrazolo[1,5-a]pyrimidin-2-yl)acetonitrile] |
| 617 nM | 80 nM | CC[C@H]1CN(C(C)c2ccc3nc(C)sc3c2)[C@H](CC)CN1c1cc(=O)n(C)c2cc(CC#N)nn12 (stereo partly drawn) [Compound A31, 2-(7-((2S,5R)-2,5-diethyl-4-(1-(2-methylbenzo[d]thiazol-6-yl)ethyl)piperazin-1-yl)-4-methyl-5-oxo-4,5-dihydropyrazolo[1,5-a]pyrimidin-2-yl)acetonitrile] |
| 1580 nM | 629 nM | CC[C@H]1CN(C(C)c2ccc3nc(C)sc3n2)[C@H](CC)CN1c1c(F)c(=O)n(C)c2cc(CC#N)nn12 (stereo partly drawn) [Compound A36, 2-(7-((2S,5R)-2,5-diethyl-4-(1-(2-methylthiazolo[5,4-b]pyridin-5-yl)ethyl)piperazin-1-yl)-6-fluoro-4-methyl-5-oxo-4,5-dihydropyrazolo[1,5-a]pyrimidin-2-yl)acetonitrile] |
| 267 nM | 266 nM | CCC(c1ccn2nc(C)cc2n1)N1C[C@H](C)N(c2cc(=O)n(C)c3cc(CC#N)nn23)C[C@H]1CC (stereo partly drawn) [Compound A43, 2-(7-((2S,5R)-5-ethyl-2-methyl-4-(1-(2-methylpyrazolo [1,5-a]pyrimidin-5-yl)propyl)piperazin-1-yl)-4-methyl-5-oxo-4,5-dihydropyrazolo [1,5-a]pyrimidin-2-yl)acetonitrile] |
| 55 nM | 38 nM | CC[C@H]1CN(C(C)c2ccn3ncc(F)c3n2)[C@H](CC)CN1c1nc(=O)n(C)c2cc(CC#N)nn12 (stereo partly drawn) [Compound A50, 2-(4-((2S,5R)-2,5-diethyl-4-(1-(3-fluoropyrazolo[1,5-a]pyrimidin-5-yl)ethyl)piperazin-1-yl)-1-methyl-2-oxo-1,2-dihydropyrazolo[1,5-a][1,3,5]triazin-7-yl)acetonitrile] |
| 150 nM | 53 nM | CC[C@H]1CN(C(C)c2ccn3nc(C)cc3c2)[C@H](CC)CN1c1nc(=O)n(C)c2cc(CC#N)nn12 (stereo partly drawn) [Compound A55, 2-(4-((2S,5R)-2,5-diethyl-4-(1-(2-methylpyrazolo[1,5-a]pyridin-5-yl)ethyl)piperazin-1-yl)-1-methyl-2-oxo-1,2-dihydropyrazolo[1,5-a][1,3,5]triazin-7-yl)acetonitrile] |
| 17 nM | 73 nM | CC[C@H]1CN(C(C)c2ccn3nc(F)cc3n2)[C@H](CC)CN1c1nc(=O)n(C)c2cc(CC#N)nn12 (stereo partly drawn) [Compound A56, 2-(4-((2S,5R)-2,5-diethyl-4-(1-(2-fluoropyrazolo[1,5-a]pyrimidin-5-yl)ethyl)piperazin-1-yl)-1-methyl-2-oxo-1,2-dihydropyrazolo[1,5-a][1,3,5]triazin-7-yl)acetonitrile] |
| 15 nM | 42 nM | CC[C@H]1CN(C(C)c2ccn3nc(Cl)cc3n2)[C@H](CC)CN1c1nc(=O)n(C)c2cc(CC#N)nn12 (stereo partly drawn) [Compound A58, 2-(4-((2S,5R)-4-(l-(2-chloropyrazolo[1,5-a]pyrimidin-5-yl)ethyl)-2,5-diethylpiperazin-1-yl)-1-methyl-2-oxo-1,2-dihydropyrazolo[1,5-a][1,3,5]triazin-7-yl)acetonitrile] |
